From patent US20260248820A1, “USES OF HYDROGENATED CANNABIDIOL (H4CBD) AND ADVANCED METABOLIC SYNDROME” (The Regents of the University of California, priority 2022, published 2026)
“Also recorded” adds a separate entry of the source.

How the values were obtained:
Mas1 mRNA = assay: Real-time qPCR on cardiac tissue, Mas1; assay type: in vivo, rat; conditions: 74% lower in OLETF control than LETO
Description: Real-Time qPCR—Gene expression was quantified by qPCR on cardiac tissue. Primers used were acquired from Integrated DNA Technologies and listed here 5′-3′: angiotensin MAS1 receptor (Mas1) Fw: […] (SEQ ID NO:1), Rv: […] (SEQ ID NO:2).

[1] = Drug bioavailability detection in heparinized plasma (HPLC, MS/MS); assay type: in vivo, rat; conditions: peak area count <1500 considered negative, 200 mg/kg oral gavage
Protocol: Drug Bioavailability Detection—H4CBD bioavailability in heparinized plasma was determined via HPLC and MS/MS. In brief, 100 μL heparinized rat plasma was diluted with 100 μL Mass Spec Gold human serum (Golden West Diagnostics, MSG3200). The samples were analyzed using a WATERS TQS-Micro. The first quadrupole was set to 319.16 m/z and the third quadrupole isolated fragments of 181.02 m/z.
Drug Bioavailability Detection—H4CBD bioavailability in heparinized plasma was determined via HPLC and MS chromatography.

[2] = tested on: proteins involved in fatty acid uptake, metabolism and storage (liver); assay: Western blot of liver proteins involved in fatty acid uptake, metabolism and storage; assay type: in vivo, rat
Description: Western Blot—Liver was used to measure proteins involved in fatty acid uptake, metabolism and storage. Densitometry values were quantified using ImageJ software (NIH) and normalized by correcting for densitometry values of representative protein bands below 37 kDa stained with Ponceau S. Results are reported as expression (%) compared to LETO.

lipase activity = assay: Lipase activity assay (adipose, liver, plasma); assay type: in vivo, rat
Protocol: Lipase Activity Assay—White adipose tissue (WAT) and liver was assayed for lipase activity.

[3] = tested on: Otsuka Long-Evans Tokushima Fatty (OLETF) rat; assay: Liver triglyceride content; assay type: in vivo; conditions: p<0.05
[4] = tested on: Otsuka Long-Evans Tokushima Fatty (OLETF) rat; assay: Observation of treated animals during dosing window; assay type: in vivo; conditions: all treated animals, regardless of dose frequency relaxation
[5] = tested on: Otsuka Long-Evans Tokushima Fatty (OLETF) rat; assay: Urinalysis (urine volume, total protein, creatinine, 3-methylhistidine); assay type: in vivo
Protocol: Body Mass (BM), Water, and Food Intake—BM was measured daily to calculate the appropriate drug and vehicle dose. Water, urine and food were measured once every 24 hours throughout the study.
Urinalysis—Urine was collected and thawed on ice to measure 3-methylhistidine (3MH; Abbexa; 257295) and creatinine (Invitrogen; EIACUN). Excretion was calculated for both by multiplying the 24-hr urine volume by the measured concentration (U×V=V*[x]), where x=creatinine or 3MH.

[6] = tested on: proteins involved in insulin signaling (soleus); assay: Western blot of soleus insulin signaling proteins; assay type: in vivo, rat
Description: Western Blot—Soleus was used to measure proteins involved in insulin signaling. Densitometry values were quantified using ImageJ software (NIH) and normalized by correcting for densitometry values of representative protein bands below 37 kDa stained with Ponceau S. Results are reported as expression (%) compared to LETO.

Structure (SMILES): CCCCCc1cc(O)c(C2CC(C)CCC2C(C)C)c(O)c1 (stereo not drawn) [H4CBD, 2-(2-isopropyl-5-methylcyclohexyl)-5-pentylbenzene-1,3-diol]
- Mas1 mRNA expression (Mas1 mRNA): not rescued
- H4CBD in end of study plasma [1]: only treated animals received drug; also recorded: only detected in plasma from treated rats
- Downstream signaling proteins GPAM, DGAT1, CPTIA, ACOX1, ApoB and PRDX6 ([2]; data not shown): comparable between groups
- FATP5 expression ([2]; increased 109% in OLETF vs LETO): not effected
- Increase of FATP2 expression ([2]; p<0.05): 60%
- Rescue (increase) of CD36 expression ([2]; p<0.05): 48%
- Liver lipase activity (cytosolic, membrane) (lipase activity; LETO, OLETF, H4CBD): not different among groups
- Fasted plasma lipase activity (lipase activity; data not shown): not significantly different among groups
- Increase of adipose lipase activity compared to OLETF control (lipase activity; white adipose tissue, tended, p=0.094): 22%
- Reduction of liver triglyceride content [3]: 28%
- Stool observation [4]: soft stool at multiple points of the dosing window
- Urine excretion compared to vehicle control, first week ([5]; 24-hour urine): reduced
- Urine excretion volume compared to OLETF control, remainder of study ([5]; 24-hour urine, persisted through the remainder of the study): increased above OLETF control by Day 11
- Increase of 3MH excretion pre- vs. post-treatment ([5]; Day 0 vs Day 28): 9%
- 3MH excretion less than OLETF control ([5]; after 4 weeks): 17%
- Reduction of creatinine excretion compared to OLETF control ([5]; after 4 weeks): 42%
- Increase of creatinine excretion within H4CBD-treated group ([5]; after 4 weeks of treatment vs Day 0, non-significant): 10%
- 3MH/Cr higher than OLETF control ([5]; post-treatment (Day 28), p=0.07): 77%
- Reduction of proteinuria compared to OLETF control ([5]; total urinary protein excretion after 4 weeks): 25%
- Increase of 3MH/Cr after 4 weeks ([5]; within H4CBD treated OLETF, muscle wasting index): 4%
- Translocated (membrane) GLUT4 ([6]; membrane fraction of skeletal muscle): no changes
- AMPK expression ([6]; soleus): No changes were detected
- Ratio of membrane to cytosolic GLUT4 ([6]; soleus): unchanged among the groups
- Reduction of PI3K expression compared to OLETF ([6]; soleus): 47%
- pAMPK expression ([6]; soleus): No changes were detected
- pAMPK/AMPK expression ([6]; soleus): No changes were detected
- pIR/IR ([6]; soleus): not changed
- Phosphorylation of the insulin receptor (pIR) ([6]; soleus protein expression): No changes were detected
- Reduction of Akt expression compared to OLETF ([6]; soleus, cytosolic, p<0.05): 32%
- Reduction of pAkt expression compared to OLETF ([6]; soleus, cytosolic, p<0.05): 58%
- Reduction of pAkt:Akt ratio compared to OLETF ([6]; soleus, p<0.01): 35%
- Increase of native insulin receptor (IR) expression over OLETF ([6]; soleus, p<0.05): 54%
- Cytosolic GLUT4 higher than OLETF ([6]; soleus, tended, p=0.06): 58%
